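In this assay, cells in 96-well plates receive the compound at five concentrations for 48 hours. Endpoints are linearly interpolated between the surrounding concentrations. Abbreviation: GI50, concentration required for 50% inhibition of growth.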 Activity calls are given as the source filed them. Rule as the data show it: active = GI50 up to about 1.1 µM and inactive = higher.
Legend:
Assay in all cases: DTP human tumour cell line panel, 48 h
786-0 = test system: 786-0
LXFL 529 = test system: LXFL 529
RXF 631 = test system: RXF 631
DMS-114 = test system: DMS-114
SNB-78 = test system: SNB-78
DLD-1 = test system: DLD-1
KM-20L2 = test system: KM-20L2
XF498 = test system: XF498
HOP-18 = test system: HOP-18

| Compound | GI50 (786-0) | GI50 (LXFL 529) | GI50 (RXF 631) | GI50 (DMS-114) | GI50 (SNB-78) | GI50 (DLD-1) | GI50 (KM-20L2) | GI50 (XF498) | GI50 (HOP-18) |
| --- | --- | --- | --- | --- | --- | --- | --- | --- | --- |
| NCCCCN(CCCN)Cc1ccccc1 | > 100 µM (inactive) | – | – | – | – | – | – | – | – |
| O=Cc1ccc(CCl)cc1 | – | 16.2 µM (inactive) | 3.16 µM (inactive) | 6.93 µM (inactive) | 16.5 µM (inactive) | 16.1 µM (inactive) | 23.6 µM (inactive) | 20 µM (inactive) | 14.4 µM (inactive) |
| Cc1c2cc[n+](C)cc2c(C)c2c1[nH]c1ccc(O)cc12 [ELLIPTINIUM ACETATE] | – | – | – | 5.97 µM (inactive) | 61.9 µM (inactive) | 57.7 µM (inactive) | > 100 µM (inactive) | – | 14.3 µM (inactive) |
| C#CCn1c(=O)c(C#N)c(O)c2cc3ccccc3nc21 | – | – | – | > 100 µM (inactive) | > 100 µM (inactive) | > 100 µM (inactive) | – | > 100 µM (inactive) | > 100 µM (inactive) |
| CC(=O)OCCCCn1cnc2nc(Nc3ccccc3)nc(Cl)c21 | > 100 µM (inactive) | – | – | – | – | – | – | – | – |
| CCCCC(NC(=O)CC)C(=O)O (stereo unspecified) | – | – | – | > 100 µM (inactive) | > 100 µM (inactive) | > 100 µM (inactive) | > 100 µM (inactive) | > 100 µM (inactive) | > 100 µM (inactive) |
| COc1ccc(-c2nnc(-c3nsc4ccccc34)o2)cc1 | – | 54.5 µM (inactive) | – | 58.1 µM (inactive) | > 100 µM (inactive) | – | > 100 µM (inactive) | – | 0.571 µM (active) |
| c1ccc2c(c1)SC1Sc3ccccc3[S+]21 (stereo unspecified) | 25.9 µM (inactive) | – | – | – | – | – | – | – | – |
| CCCCC1=C(Br)C(=C(Br)Br)OC1=O | – | – | – | 2.07 µM (inactive) | 6.01 µM (inactive) | 1.9 µM (inactive) | 8.65 µM (inactive) | 7.62 µM (inactive) | 3.94 µM (inactive) |
| COc1ccc(/C=C/c2cnccn2)cc1OC | > 10 µM (inactive) | – | – | – | – | – | – | – | – |
| O=C(NC1C2CC3CC(C2)CC1C3)c1cc(/C=C/c2ccccc2)nc(S)n1 (stereo unspecified) | – | > 100 µM (inactive) | > 100 µM (inactive) | > 100 µM (inactive) | > 100 µM (inactive) | > 100 µM (inactive) | > 100 µM (inactive) | > 100 µM (inactive) | – |
| COc1c2c(c(O)c3c4c(c(C)cc13)C1OC3(C(OC)OC5CC(C)(O)C(OC6CC(C)(O)C(O)C(C)O6)C(C)O5)OC1C(OC)(O4)C31CO1)C(=O)C(O)CC2OC1CC(C)(O)C(OC(C)=O)C(C)O1 (stereo unspecified) | < 0.01 µM (active) | < 0.01 µM (active) | < 0.01 µM (active) | < 0.01 µM (active) | < 0.01 µM (active) | 0.01 µM (active) | < 0.01 µM (active) | < 0.01 µM (active) | < 0.01 µM (active) |
| O=C(NC1C(O)C(O)C(CO)OC1n1cc(F)c(=O)[nH]c1=O)OCc1ccccc1 (stereo unspecified) | – | > 100 µM (inactive) | > 100 µM (inactive) | > 100 µM (inactive) | > 100 µM (inactive) | > 100 µM (inactive) | > 100 µM (inactive) | – | > 100 µM (inactive) |
| OCCOCn1nc(-c2ccccc2)nc1-c1cnccn1 | > 100 µM (inactive) | – | – | – | – | – | – | – | – |
| COC(=O)C1OC(Oc2cc(O)c3c(=O)cc(-c4ccc(O)cc4)oc3c2)C(O)C(O)C1O (stereo unspecified) | – | – | – | > 100 µM (inactive) | > 100 µM (inactive) | > 100 µM (inactive) | > 100 µM (inactive) | > 100 µM (inactive) | > 100 µM (inactive) |
| C(/C=N/c1ccccc1)=C(/Nc1ccccc1)C12CC3CC(CC(C3)C1)C2 | 15 µM (inactive) | – | – | – | – | – | – | – | – |
| COc1cc(C2c3cc4c(cc3OC(N3CCCCC3)C2C)OCO4)cc(OC)c1OC (stereo unspecified) | 3.42 µM (inactive) | – | – | – | – | – | – | – | – |
